{"source": "paper PMC11768370", "about": "“Etodolac Single Dose Metabolic Profile Elucidation: Pharmacokinetics and Adverse Events in Healthy Volunteers” (Pharmaceuticals, 2025)", "key": {"[1]": {"test": "Drug stability in biological fluid (LC-MS/MS method validation)", "format": "in vitro ADME", "conditions": "human plasma, LQC and HQC; freshly prepared, post-processing (auto-injector, 73:43 hours), short-term (72:21 hours), freeze-thaw (4 cycles) at -20 °C and -70 °C, long-term 90 days at -20 °C and -70 °C; demonstrating stability", "method": "criteria for RE and CV must not exceed 15% for QC and 20% for LLOQ. All stability assays were performed to cover the conditions anticipated for handling real samples: freshly prepared, post-processing, short-term, freeze–thaw, and long-term were evaluated at concentrations of LQC and HQC. RE and CV were used to check possible variations.\n2.4. Determination of Etodolac Pharmacokinetic\nFollowing Food and Drug Administration (FDA) guidelines, blood samples were drawn up to a period of three to ﬁve times the terminal elimination half-life (t1/2), and the mean AUC0–t/AUC0–∞ ratio was required to be higher than 80%. The area under the concentration–time curve (AUC0–t) was calculated from time 0 to time t. The total area under the curve (AUC0–∞) was obtained up to […], and extrapolations were performed using the last measurable concentration and the terminal elimination rate constant (Ke). The terminal elimination rate constant, Ke, was estimated from the slope of the terminal […] of the plasma of the etodolac concentration–time curve (by means of the linear regression method) adjusted in the last three values. The terminal elimination half-life, t1/2, was then obtained as 0.693/Ke. […]"}, "[2]": {"test": "Adverse events monitoring by clinical evaluation and laboratory tests after single dose"}, "[3]": {"conditions": "37 healthy volunteers, single dose 500 mg"}, "[4]": {"conditions": "Adverse event: Alanine Aminotransferase Increased"}, "[5]": {"conditions": "Adverse event: Alkaline Phosphatase Increased"}, "[6]": {"conditions": "Adverse event: Altered Erythrogram"}, "[7]": {"conditions": "Adverse event: Altered Leukogram"}, "[8]": {"conditions": "Adverse event: Decreased Platelet Count"}, "[9]": {"conditions": "Adverse event: Fastting Glucose Increased"}, "[10]": {"conditions": "Adverse event: Increased Total Bilirubin and Fractions"}, "[11]": {"conditions": "Adverse event: Total Cholesterol Increased"}}}
{"smiles": "CCc1cccc2c3c([nH]c12)C(CC)(CC(=O)O)OCC3", "note": "(stereo not shown) [Etodolac]", "values": [{"measurement": "drug stability in biological fluid: precision and accuracy values", "setting": "[1]", "result": "below 15%"}, {"measurement": "adverse events: intensity (all events)", "setting": "[2]; [3]", "result": "mild"}, {"measurement": "adverse events: predictability (all events)", "setting": "[2]; [3]", "result": "not expected"}, {"measurement": "adverse events recorded (total)", "setting": "[2]; 37 healthy volunteers, single dose 500 mg, results outside reference values", "result": 19}, {"measurement": "Intensity (Mild / Moderate / Severe / Lethal)", "setting": "[2]; [4]", "result": "Mild"}, {"measurement": "Predictability (Expected / Not Expected)", "setting": "[2]; [4]", "result": "Not Expected"}, {"measurement": "Events count", "setting": "[2]; Adverse event: Alanine Aminotransferase Increased, 37 healthy volunteers, single dose 500 mg", "result": 3}, {"measurement": "Intensity (Mild / Moderate / Severe / Lethal)", "setting": "[2]; [5]", "result": "Mild"}, {"measurement": "Predictability (Expected / Not Expected)", "setting": "[2]; [5]", "result": "Not Expected"}, {"measurement": "Events count", "setting": "[2]; Adverse event: Alkaline Phosphatase Increased, 37 healthy volunteers, single dose 500 mg", "result": 1}, {"measurement": "Intensity (Mild / Moderate / Severe / Lethal)", "setting": "[2]; [6]", "result": "Mild"}, {"measurement": "Predictability (Expected / Not Expected)", "setting": "[2]; [6]", "result": "Not Expected"}, {"measurement": "Events count", "setting": "[2]; Adverse event: Altered Erythrogram, 37 healthy volunteers, single dose 500 mg", "result": 3}, {"measurement": "Intensity (Mild / Moderate / Severe / Lethal)", "setting": "[2]; [7]", "result": "Mild"}, {"measurement": "Predictability (Expected / Not Expected)", "setting": "[2]; [7]", "result": "Not Expected"}, {"measurement": "Events count", "setting": "[2]; Adverse event: Altered Leukogram, 37 healthy volunteers, single dose 500 mg", "result": 3}, {"measurement": "Intensity (Mild / Moderate / Severe / Lethal)", "setting": "[2]; [8]", "result": "Mild"}, {"measurement": "Predictability (Expected / Not Expected)", "setting": "[2]; [8]", "result": "Not Expected"}, {"measurement": "Events count", "setting": "[2]; Adverse event: Decreased Platelet Count, 37 healthy volunteers, single dose 500 mg", "result": 1}, {"measurement": "Intensity (Mild / Moderate / Severe / Lethal)", "setting": "[2]; [9]", "result": "Mild"}, {"measurement": "Predictability (Expected / Not Expected)", "setting": "[2]; [9]", "result": "Not Expected"}, {"measurement": "Events count", "setting": "[2]; Adverse event: Fastting Glucose Increased, 37 healthy volunteers, single dose 500 mg", "result": 3}, {"measurement": "Intensity (Mild / Moderate / Severe / Lethal)", "setting": "[2]; [10]", "result": "Mild"}, {"measurement": "Predictability (Expected / Not Expected)", "setting": "[2]; [10]", "result": "Not Expected"}, {"measurement": "Events count", "setting": "[2]; Adverse event: Increased Total Bilirubin and Fractions, 37 healthy volunteers, single dose 500 mg", "result": 1}, {"measurement": "Intensity (Mild / Moderate / Severe / Lethal)", "setting": "[2]; Adverse event: Leukocyturia", "result": "Mild"}, {"measurement": "Predictability (Expected / Not Expected)", "setting": "[2]; Adverse event: Leukocyturia", "result": "Not Expected"}, {"measurement": "Events count", "setting": "[2]; Adverse event: Leukocyturia, 37 healthy volunteers, single dose 500 mg", "result": 1}, {"measurement": "Intensity (Mild / Moderate / Severe / Lethal)", "setting": "[2]; [11]", "result": "Mild"}, {"measurement": "Predictability (Expected / Not Expected)", "setting": "[2]; [11]", "result": "Not Expected"}, {"measurement": "Events count", "setting": "[2]; Adverse event: Total Cholesterol Increased, 37 healthy volunteers, single dose 500 mg", "result": 3}]}
